Experimental data taken from publication PMC8292346, “Dysfunction of the key ferroptosis-surveilling systems hypersensitizes mice to tubular necrosis during acute kidney injury” (Nature Communications, 2021).

Test: Inhibited co-autoxidation of egg phosphatidylcholine liposomes and STY-BODIPY (radical-trapping antioxidant activity)
Description: Inhibitors were then added (5 μl aliquots) at desired concentrations to the appropriate wells followed by vigorous mixing. […] Experiments were performed in triplicate using HPLC grade solvents and kinetic data is given as an average of three independent measurements. […]

Substance: 2,2,7,8-pentamethyl-6-chromanol [PMC, reference compound]
- ΔSTY-BODIPY (time 53820 s): -0.366 µM
- ΔSTY-BODIPY (time 53880 s): -0.3653 µM
- ΔSTY-BODIPY (time 53940 s): -0.3652 µM
- ΔSTY-BODIPY (time 54000 s): -0.3628 µM
